The record followed here is patent US10709709B2, “Substituted carbonucleoside derivatives useful as anticancer agents” (Pfizer Inc., priority 2016, dated 2020).

For test [1], the target named is PRMT5/MEP50 protein complex (Homo sapiens (Human), UniProt O14744). Put plainly: PRMT5 biochemical assay (3H-SAM methylation of H4(1-21) peptide, filter plate scintillation). Conditions: 10 nM PRMT5/MEP50 complex, 200 nM H4(1-21) peptide, 1 uM SAM, 25 minute incubation at room temperature. A digest of the protocol: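 Human PRMT5/MEP50 complex (10 nM) methylating H4(1-21) peptide (200 nM) with 3H/unlabelled SAM (1 uM final) in pH 8.5 Tris buffer, 25 min at room temperature. Stopped with TCA, 3H-peptide captured on filter plates and scintillation-counted. IC50 from 4-parameter fit.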

In test [2] the test system is A549 lung adenocarcinoma cells. Description: A549 proliferation assay (Cell Titer Glo). It is filed as cell-based. The settings on record: 7 days with compound, cell viability by Cell Titer Glo (ATP). The protocol:
A549 lung adenocarcinoma cells (American Type Culture Collection) were maintained in DMEM growth media (Life Technologies) supplemented with 10% v/v heat inactivated fetal bovine serum (Sigma) and cultured at 37° C., 5% CO2. Exponentially growing A549 cells were plated in 96-well black tissue culture treated plates (Corning) at a density of […] in a volume of 100 μl culture media and allowed to adhere overnight at 37° C., 5% CO2. The following day, compound plates were prepared by making nine-point 3.3-fold dilutions in DMSO with a top concentration of 10 mM. Compounds were further diluted in culture media and 11 μl was added to the cells (final top assay concentration was 10 μM and DMSO was 0.2%). Cells were incubated with compound at 37° C., 5% CO2 for 7 days with media and compound replacement on day 4. Cell viability was assayed on Day 7 by adding 100 μl Cell Titer Glo (Promega) reagent to the plate to measure the amount of ATP present in the cells. Luminescence was read using the Envision 2104 Multilabel Reader (Perkin Elmer). The 50% inhibitory concentration (IC50) was determined using a 4-parameter fit model normalized to the DMSO control in dose response.

The structures appear in SMILES notation. Where a name gives a salt, the structure may show the parent alone.

PRMT5/MEP50 protein complex, sequence (O14744 other isoform, or with tags, fused parts or gaps): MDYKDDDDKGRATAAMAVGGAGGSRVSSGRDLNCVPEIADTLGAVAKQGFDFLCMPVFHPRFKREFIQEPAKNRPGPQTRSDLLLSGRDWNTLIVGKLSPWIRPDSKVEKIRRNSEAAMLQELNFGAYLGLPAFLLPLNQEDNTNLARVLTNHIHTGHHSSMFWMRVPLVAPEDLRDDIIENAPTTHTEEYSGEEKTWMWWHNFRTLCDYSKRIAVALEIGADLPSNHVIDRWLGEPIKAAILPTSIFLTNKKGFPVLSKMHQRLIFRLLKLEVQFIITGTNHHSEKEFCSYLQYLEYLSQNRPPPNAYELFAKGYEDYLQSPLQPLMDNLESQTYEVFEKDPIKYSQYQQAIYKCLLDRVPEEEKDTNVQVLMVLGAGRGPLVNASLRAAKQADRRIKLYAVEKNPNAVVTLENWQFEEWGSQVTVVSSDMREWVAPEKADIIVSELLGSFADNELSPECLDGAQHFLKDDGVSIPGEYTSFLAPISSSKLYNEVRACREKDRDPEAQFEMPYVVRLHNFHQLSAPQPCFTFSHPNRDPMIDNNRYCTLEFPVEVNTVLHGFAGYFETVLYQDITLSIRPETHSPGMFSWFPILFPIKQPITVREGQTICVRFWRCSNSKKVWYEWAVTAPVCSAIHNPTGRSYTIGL
PRMT5/MEP50 protein complex, sequence (Q9BQA1 whole entry partner): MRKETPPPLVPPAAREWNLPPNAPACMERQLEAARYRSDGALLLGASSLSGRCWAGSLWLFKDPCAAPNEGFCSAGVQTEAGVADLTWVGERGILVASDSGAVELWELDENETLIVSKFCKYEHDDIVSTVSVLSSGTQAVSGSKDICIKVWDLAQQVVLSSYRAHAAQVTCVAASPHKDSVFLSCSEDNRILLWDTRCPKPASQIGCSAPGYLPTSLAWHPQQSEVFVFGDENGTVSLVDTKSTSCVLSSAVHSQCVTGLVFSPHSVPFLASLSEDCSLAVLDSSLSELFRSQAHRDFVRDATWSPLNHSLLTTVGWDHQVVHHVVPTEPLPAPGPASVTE

For the compound `Cc1ncnc2c1ccn2[C@@H]1C[C@H](Oc2nc(C(F)F)cc3c2CNCC3)[C@@H](O)[C@H]1O` [Example 194, (1S,2S,3S,5R)-3-((3-(difluoromethyl)-5,6,7,8-tetrahydro-2,7-naphthyridin-1-yl)oxy)-5-(4-methyl-7H-pyrrolo[2,3-d]pyrimidin-7-yl)cyclopentane-1,2-diol], the IC50 worked out at 1 nM in test [1] and 111 nM in test [2] (Homo sapiens, A549, 168 h).

Turning to `Cc1ncnc2c1ccn2[C@@H]1C[C@H](Oc2cc(C(F)F)cc3c2CNCC3)[C@@H](O)[C@H]1O` [Example 154, (1S,2S,3S,5R)-3-((6-(difluoromethyl)-1,2,3,4-tetrahydroisoquinolin-8-yl)oxy)-5-(4-methyl-7H-pyrrolo[2,3-d]pyrimidin-7-yl)cyclopentane-1,2-diol], the 50% inhibitory concentration (IC50) in test [1] amounted to 1 nM; in test [2] (Homo sapiens, A549, 168 h), 2 nM. On the same counts, the results for `Cc1ncnc2c1ccn2[C@@H]1C[C@H](Oc2ccc(Cl)c(F)c2CN)[C@@H](O)[C@H]1O` [Example 143, (1S,2S,3S,5R)-3-(2-(aminomethyl)-4-chloro-3-fluorophenoxy)-5-(4-methyl-7H-pyrrolo[2,3-d]pyrimidin-7-yl)cyclopentane-1,2-diol] are 6 nM and 1400 nM.

For the compound `Cc1ncnc2c1ccn2[C@@H]1C[C@H](Oc2cccc3c2CNC[C@H](C)O3)[C@@H](O)[C@H]1O` [Example 210, (1S,2S,3S,5R)-3-(((S)-2-methyl-2,3,4,5-tetrahydrobenzo[f][1,4]oxazepin-6-yl)oxy)-5-(4-methyl-7H-pyrrolo[2,3-d]pyrimidin-7-yl)cyclopentane-1,2-diol], the IC50 in test [1] was found to be 1 nM; in test [2] (Homo sapiens, A549, 168 h) it was 1550 nM. On the same counts, the results for `Cc1ncnc2c1ccn2[C@@H]1C[C@H](Oc2cncc3c2CNCC3)[C@@H](O)[C@H]1O` [Example 95, (1S,2S,3R,5S)-3-(4-methyl-7H-pyrrolo[2,3-d]pyrimidin-7-yl)-5-((5,6,7,8-tetrahydro-2,6-naphthyridin-4-yl)oxy)cyclopentane-1,2-diol] are 6 nM and 8130 nM. The corresponding values for `Cc1ncnc2c1ccn2[C@@H]1C[C@H](Oc2ccc(F)cc2[C@H](C)N)[C@@H](O)[C@H]1O` [Example 138, (1S,2S,3S,5R)-3-(2-((S)-1-aminoethyl)-4-fluorophenoxy)-5-(4-methyl-7H-pyrrolo[2,3-d]pyrimidin-7-yl)cyclopentane-1,2-diol] are 2 nM and 1480 nM. The corresponding values for `Cc1ncnc2c1ccn2[C@@H]1C[C@H](Oc2cccc3c2CNC(C)C3)[C@@H](O)[C@H]1O` (single isomer, unassigned) [Example 184] are 1 nM and 1400 nM. `Cc1ncnc2c1ccn2[C@@H]1C[C@H](Oc2ccc(Cl)c3c2CNCC3)[C@@H](O)[C@H]1O` [Example 86, (1S,2S,3S,5R)-3-((5-chloro-1,2,3,4-tetrahydroisoquinolin-8-yl)oxy)-5-(4-methyl-7H-pyrrolo[2,3-d]pyrimidin-7-yl)cyclopentane-1,2-diol]: the concentration for half-maximal inhibition (IC50) in test [1] turned out to be 4 nM; in test [2] (Homo sapiens, A549, 168 h), 1840 nM. In the case of `Cc1ncnc2c1ccn2[C@@H]1C[C@H](Oc2ccc(F)c3c2CNCC3C)[C@@H](O)[C@H]1O` (single isomer, unassigned) [Example 182, hydrochloride], the 50% inhibitory concentration (IC50) came to 2 nM in test [1] and 2180 nM in test [2] (hydrochloride). Regarding `Cc1ncnc2c1ccn2[C@@H]1C[C@H](Oc2cc(Cl)c(F)c3c2CNCC3)[C@@H](O)[C@H]1O` [Example 93, (1S,2S,3S,5R)-3-((6-chloro-5-fluoro-1,2,3,4-tetrahydroisoquinolin-8-yl)oxy)-5-(4-methyl-7H-pyrrolo[2,3-d]pyrimidin-7-yl)cyclopentane-1,2-diol], the half-maximal inhibitory concentration (IC50) in test [1] is 1 nM; in test [2] (Homo sapiens, A549, 168 h), 140 nM. The corresponding values for `Nc1ncnc2c1c(Cl)cn2[C@@H]1C[C@H](Oc2cc(Cl)cc3c2CNCC3)[C@@H](O)[C@H]1O` [Example 130, (1S,2S,3R,5S)-3-(4-amino-5-chloro-7H-pyrrolo[2,3-d]pyrimidin-7-yl)-5-((6-chloro-1,2,3,4-tetrahydroisoquinolin-8-yl)oxy)cyclopentane-1,2-diol] are 1 nM and 983 nM. With `Cc1ncnc2c1ccn2[C@@H]1C[C@H]([C@H](O)c2ccc(Cl)cc2)[C@@H](O)[C@H]1O` [Example 11, (1S,2R,3R,5R)-3-[(S)-(4-chlorophenyl)(hydroxy)methyl]-5-(4-methyl-7H-pyrrolo[2,3-d]pyrimidin-7-yl)cyclopentane-1,2-diol], the IC50 in test [1] was 20 nM; in test [2] (Homo sapiens, 168 h), 1390 nM. For `Cc1ncnc2c1ccn2[C@@H]1C[C@H](Oc2ccc(F)c3c2CNCC3)[C@@H](O)[C@H]1O` [Example 84, (1S,2S,3S,5R)-3-((5-fluoro-1,2,3,4-tetrahydroisoquinolin-8-yl)oxy)-5-(4-methyl-7H-pyrrolo[2,3-d]pyrimidin-7-yl)cyclopentane-1,2-diol], the concentration for half-maximal inhibition (IC50) in test [1] turned out to be 2 nM; in test [2] (Homo sapiens, A549, 168 h), 500 nM.

As for `Cc1cc2cccc(O[C@H]3C[C@@H](n4ccc5c(C)ncnc54)[C@H](O)[C@@H]3O)c2cn1` [Example 169, (1S,2S,3R,5S)-3-(4-methyl-7H-pyrrolo[2,3-d]pyrimidin-7-yl)-5-((3-methylisoquinolin-8-yl)oxy)cyclopentane-1,2-diol], the IC50 in test [1] was 37 nM; in test [2] (Homo sapiens, A549, 168 h), 743 nM. On the same counts, the results for `Cc1ncnc2c1c(F)cn2[C@@H]1C[C@H](Oc2cc(C#N)cc3c2CNCC3)[C@@H](O)[C@H]1O` [Example 119, 8-(((1S,2S,3S,4R)-4-(5-fluoro-4-methyl-7H-pyrrolo[2,3-d]pyrimidin-7-yl)-2,3-dihydroxycyclopentyl)oxy)-1,2,3,4-tetrahydroisoquinoline-6-carbonitrile] are 1 nM and 556 nM. `Cc1ncc2c(F)cn([C@@H]3C[C@H](Oc4ccc(F)c5c4CNCC5)[C@@H](O)[C@H]3O)c2n1` [Example 132, (1S,2S,3S,5R)-3-((5-fluoro-1,2,3,4-tetrahydroisoquinolin-8-yl)oxy)-5-(5-fluoro-2-methyl-7H-pyrrolo[2,3-d]pyrimidin-7-yl)cyclopentane-1,2-diol]: the IC50 is 2 nM in test [1] and 2750 nM in test [2] (Homo sapiens, A549, 168 h). For `Cc1ncnc2c1ccn2[C@@H]1C[C@H]([C@H](O)c2cc(F)c(F)c(F)c2)[C@@H](O)[C@H]1O` [Example 13, (1S,2R,3R,5R)-3-[(S)-hydroxy(3,4,5-trifluorophenyl)methyl]-5-(4-methyl-7H-pyrrolo[2,3-d]pyrimidin-7-yl)cyclopentane-1,2-diol], the IC50 in test [1] was found to be 16 nM; in test [2] (Homo sapiens, 168 h), 971 nM.

On to `Cc1ncnc2c1ccn2[C@@H]1C[C@H](Oc2cccc3c2CNCCO3)[C@@H](O)[C@H]1O` [Example 164, (1S,2S,3R,5S)-3-(4-methyl-7H-pyrrolo[2,3-d]pyrimidin-7-yl)-5-((2,3,4,5-tetrahydrobenzo[f][1,4]oxazepin-6-yl)oxy)cyclopentane-1,2-diol], for which the 50% inhibitory concentration (IC50) in test [1] was determined as 4 nM; in test [2] (Homo sapiens, A549, 168 h), 3860 nM.

In the case of `Cc1cn([C@@H]2C[C@H](Oc3ccc(F)c4c3CNCC4)[C@@H](O)[C@H]2O)c2ncnc(N)c12` [Example 121, (1S,2S,3R,5S)-3-(4-amino-5-methyl-7H-pyrrolo[2,3-d]pyrimidin-7-yl)-5-((5-fluoro-1,2,3,4-tetrahydroisoquinolin-8-yl)oxy)cyclopentane-1,2-diol], the IC50 turned out to be 1 nM in test [1] and 938 nM in test [2] (Homo sapiens, A549, 168 h).

`Cc1ncnc2c1ccn2[C@@H]1C[C@H](Oc2cc(C(F)F)cc3c2CNCCO3)[C@@H](O)[C@H]1O` [Example 205, (1S,2S,3S,5R)-3-((8-(difluoromethyl)-2,3,4,5-tetrahydrobenzo[f][1,4]oxazepin-6-yl)oxy)-5-(4-methyl-7H-pyrrolo[2,3-d]pyrimidin-7-yl)cyclopentane-1,2-diol]: in test [2] (Homo sapiens, A549, 168 h), the 50% inhibitory concentration (IC50) came out at 248 nM. The same measure, in the same setting: with `Nc1ncnc2c1c(Br)cn2[C@@H]1C[C@H](Oc2cc(Cl)cc3c2CNCC3)[C@@H](O)[C@H]1O` [Example 131] the figure was 482 nM. The same measure, in the same setting: with `Cc1cc2c(c(O[C@H]3C[C@@H](n4ccc5c(C)ncnc54)[C@H](O)[C@@H]3O)c1)CNCCO2` [Example 206, (1S,2S,3S,5R)-3-((8-methyl-2,3,4,5-tetrahydrobenzo[f][1,4]oxazepin-6-yl)oxy)-5-(4-methyl-7H-pyrrolo[2,3-d]pyrimidin-7-yl)cyclopentane-1,2-diol] the figure was 6550 nM. On the same count and under the same terms, with `Cc1ncnc2c1ccn2[C@@H]1C[C@H](Oc2cc(OC(F)F)c(F)c3c2CNCC3)[C@@H](O)[C@H]1O` [Example 200, (1S,2S,3S,5R)-3-((6-(difluoromethoxy)-5-fluoro-1,2,3,4-tetrahydroisoquinolin-8-yl)oxy)-5-(4-methyl-7H-pyrrolo[2,3-d]pyrimidin-7-yl)cyclopentane-1,2-diol] the figure was 140 nM.
